From patent US20120122896A1, “2,1,3-BENZOXADIAZOL DERIVATIVES FOR THE INHIBITION OF INFLUENZA A AND B VIRUS AND RESPIRATORY SYNCYTIAL VIRUS REPLICATION” (PIKE PHARMA GMBH, priority 2009, published 2012)
Read-outs that look alike come from different tables or passages of the source.

Key:
[1] = target: interaction between PB1 and PA (Influenza A virus, UniProt P03433); assay: biochemical; type: binding; details: for IC50: calculated from inhibition at maximum obtainable concentration where solubility too low, read-out: IC50 [μM] (ELISA); for inhibition at 1000 µM: highest concentration used, read-out: Max. Inhibition (ELISA) at 1000 μM
RSV (Long strain) = assay: RSV induced cell death reduction in HEp-2 cells; type: cell-based, respiratory syncytial virus; details: for RSV activity, Maximum inhibition (in words): serial dilution 100 to 0.14 μM, 72 h; for inhibition at 33 µM: HEp-2, read-out: RSV activity, Maximum inhibition
[2] = test system: influenza virus (A/WSN/33); assay: plaque reduction assay, influenza virus in MDCK cells; type: cell-based
[3] = human respiratory syncytial virus, HEp-2
[4] = human respiratory syncytial virus, HEp-2, read-out: RSV activity, Maximum inhibition
[5] = human respiratory syncytial virus

Row | Compound | Active in ELISA ([1]; prescreening) | IC50 [1] | RSV activity, Maximum inhibition (in words) (RSV (Long strain)) | inhibition of RSV replication (summary in words) (RSV (Long strain)) | also measured
1 | COc1ccc(CSc2ccc([N+](=O)[O-])c3nonc23)cc1 [PKE060, 4-[(4-methoxybenzyl)thio]-7-nitro-2,1,3-benzoxadiazole] | Yes | – | – | – | –
2 | COc1ccc(S(=O)(=O)OCCSc2ccc([N+](=O)[O-])c3nonc23)cc1 [PKE061, 2-[(7-nitro-2,1,3-benzoxadiazol-4-yl)thio]ethyl 4-methoxybenzene-1-sulfonate] | Yes | > 1000 µM | inactive | – | inhibition at 1000 µM [1]: 37%
3 | Cc1ccc(Sc2ccc([N+](=O)[O-])c3nonc23)cc1 [PKE068, 4-[(4-methylphenyl)thio]-7-nitro-2,1,3-benzoxadiazole] | Yes | > 1000 µM | – | – | inhibition at 1000 µM [1]: 46%
4 | COc1ccc(Nc2ccc([N+](=O)[O-])c3nonc23)cc1 [PKE069, N4-(4-methoxyphenyl)-7-nitro-2,1,3-benzoxadiazol-4-amine] | No | – | inactive | – | –
5 | O=[N+]([O-])c1ccc(Nc2ccc(F)cc2)c2nonc12 [PKE070, N4-(4-fluorophenyl)-7-nitro-2,1,3-benzoxadiazol-4-amine] | No | – | – | effective | IC50 (RSV (Long strain); [3]): 4 µM; inhibition at 11 µM (RSV (Long strain); [4]): 75%
6 | O=[N+]([O-])c1ccc(Nc2cccc(F)c2)c2nonc12 [PKE071, N4-(3-fluorophenyl)-7-nitro-2,1,3-benzoxadiazol-4-amine] | No | – | – | effective | IC50 (RSV (Long strain); [3]): 4 µM; inhibition at 11 µM (RSV (Long strain); [4]): 73%
7 | O=[N+]([O-])c1ccc(N2CCCC2)c2nonc12 [PKE072, 4-nitro-7-tetrahydro-1H-pyrrol-1-yl-2,1,3-benzoxadiazole] | – | – | – | effective | Active in ELISA [1]: No; inhibition at 33 µM (RSV (Long strain); [5]): 44%
8 | O=[N+]([O-])c1ccc(NCc2cccs2)c2nonc12 [PKE073, N4-(2-thienylmethyl)-7-nitro-2,1,3-benzoxadiazol-4-amine] | – | – | – | effective | Active in ELISA [1]: No; inhibition at 33 µM (RSV (Long strain); [5]): 42%
9 | Cc1ccc(Nc2ccc([N+](=O)[O-])c3nonc23)cc1 [PKE074, N4-(4-methylphenyl)-7-nitro-2,1,3-benzoxadiazol-4-amine] | No | – | – | – | –
10 | O=[N+]([O-])c1ccc(Sc2ccc(Cl)cc2Cl)c2nonc12 [PKE075, 4-[(2,4-dichlorophenyl)thio]-7-nitro-2,1,3-benzoxadiazole] | Yes | > 1000 µM | – | – | inhibition at 1000 µM [1]: 35%
11 | O=[N+]([O-])c1ccc(SCCO)c2nonc12 [PKE076, 2-[(7-nitro-2,1,3-benzoxadiazol-4-yl)thio]ethan-1-ol] | – | – | inactive | – | –
12 | Cc1ccc(CSc2ccc([N+](=O)[O-])c3nonc23)cc1 [PKE077, 4-[(4-methylbenzyl)thio]-7-nitro-2,1,3-benzoxadiazole] | Yes | > 1000 µM | inactive | – | inhibition at 1000 µM [1]: 33%
13 | Cc1cccc(Nc2ccc([N+](=O)[O-])c3nonc23)c1 [PKE078, N4-(3-methylphenyl)-7-nitro-2,1,3-benzoxadiazol-4-amine] | No | – | – | effective | IC50 (RSV (Long strain); [3]): 6 µM; inhibition at 11 µM (RSV (Long strain); [4]): 56%
14 | O=[N+]([O-])c1ccc(Sc2ccc(F)cc2)c2nonc12 [PKE079, 4-[(4-fluorophenyl)thio]-7-nitro-2,1,3-benzoxadiazole] | Yes | 125 µM | – | effective | inhibition of the replication of influenza virus, particularly influenza A (summary in words) [2]: effectively inhibited; IC50 (RSV (Long strain); [3]): 7 µM; inhibition at 11 µM (RSV (Long strain); [4]): 53%
15 | O=[N+]([O-])c1ccc(Sc2cccc(Cl)c2)c2nonc12 [PKE080, 4-[(3-chlorophenyl)thio]-7-nitro-2,1,3-benzoxadiazole] | Yes | 60 µM | – | – | –
16 | O=C(OCCSc1ccc([N+](=O)[O-])c2nonc12)c1ccc(Cl)cc1Cl [PKE081, 2-[(7-nitro-2,1,3-benzoxadiazol-4-yl)thio]ethyl 2,4-dichlorobenzoate] | No | – | – | – | –
17 | COc1ccc(C(=O)OCCSc2ccc([N+](=O)[O-])c3nonc23)cc1 [PKE082, 2-[(7-nitro-2,1,3-benzoxadiazol-4-yl)thio]ethyl-4-methoxybenzoate] | Yes | 100 µM | – | – | –
18 | O=C(OCCSc1ccc([N+](=O)[O-])c2nonc12)c1ccccc1 [PKE083, 2-[(7-nitro-2,1,3-benzoxadiazol-4-yl)thio]ethyl benzoate] | No | – | inactive | – | –

Row | Compound | Active in ELISA ([1]; prescreening) | IC50 [1] | RSV activity, Maximum inhibition (in words) (RSV (Long strain)) | inhibition of RSV replication (summary in words) (RSV (Long strain)) | also measured
19 | O=[N+]([O-])c1ccc(SCc2ccccc2)c2nonc12 [PKE107, 4-nitro-7-(phenylmethylsulfanyl)-2,1,3-benzoxadiazole] | Yes | 125 µM | inactive | – | inhibition of the replication of influenza virus, particularly influenza A (summary in words) [2]: effectively inhibited
20 | O=[N+]([O-])c1ccc(S(=O)(=O)Cc2ccccc2)c2nonc12 [PKE108, 4-nitro-7-(phenylmethylsulfonyl)-2,1,3-benzoxadiazole] | Yes | 500 µM | inactive | – | inhibition of the replication of influenza virus, particularly influenza A (summary in words) [2]: effectively inhibited
21 | Nc1nc(Sc2ccc([N+](=O)[O-])c3nonc23)c2[nH]cnc2n1 [PKE110, 6-[(4-nitro-2,1,3-benzoxadiazol-7-yl)sulfanyl]-7H-purin-2-amine] | No | – | inactive | – | –
22 | O=[N+]([O-])c1ccc(Nc2ccccc2)c2nonc12 [PKE118, 4-nitro-N-phenyl-2,1,3-benzoxadiazol-7-amine] | No | – | – | effective | inhibition at 11 µM (RSV (Long strain); [4]): 44%
23 | COc1ccc(Nc2ccc([N+](=O)[O-])c3nonc23)cc1 [PKE119, N-(4-methoxyphenyl)-4-nitro-2,1,3-benzoxadiazol-7-amine] | – | – | – | effective | inhibition at 11 µM (RSV (Long strain); [4]): 21%
24 | O=[N+]([O-])c1ccc(Nc2ccc(Cl)cc2)c2nonc12 [PKE120, N-(4-chlorophenyl)-4-nitro-2,1,3-benzoxadiazol-7-amine] | No | – | – | effective | IC50 (RSV (Long strain); [3]): 2 µM; inhibition at 3.7 µM (RSV (Long strain); human respiratory syncytial virus, HEp-2, at 3.7 μM, read-out: RSV activity, Maximum inhibition): 67%
25 | COc1ccc(CNc2ccc([N+](=O)[O-])c3nonc23)cc1 [PKE130, N-[(4-methoxyphenyl)methyl]-4-nitro-2,1,3-benzoxadiazol-7-amine] | – | – | – | effective | Active in ELISA [1]: No; inhibition at 33 µM (RSV (Long strain); [5]): 48%
26 | Cc1ccccc1Nc1ccc([N+](=O)[O-])c2nonc12 [PKE131, N-(2-methylphenyl)-4-nitro-2,1,3-benzoxadiazol-7-amine] | No | – | – | effective | inhibition at 11 µM (RSV (Long strain); [4]): 48%
27 | O=[N+]([O-])c1ccc(N2CCN(Cc3ccccc3)CC2)c2c1no[n+]2[O-] [PKE133, 4-nitro-1-oxido-7-[4-(phenylmethyl)piperazin-1-yl]-2,1,3-benzoxadiazol-1-ium] | No | – | inactive | – | –
28 | CCCCN1CCN(c2ccc([N+](=O)[O-])c3no[n+]([O-])c23)CC1 [PKE134, 7-(4-butylpiperazin-1-yl)-4-nitro-1-oxido-2,1,3-benzoxadiazol-1-ium] | No | – | inactive | – | –
29 | O=[N+]([O-])c1ccc(N2CCN(c3ccccc3)CC2)c2nonc12 [PKE135, 4-nitro-7-(4-phenylpiperazin-1-yl)-2,1,3-benzoxadiazole] | No | – | inactive | – | –
30 | CCN(CC)CCCNc1ccc([N+](=O)[O-])c2no[n+]([O-])c12 [PKE136, N,N-diethyl-N′-(4-nitro-1-oxido-2,1,3-benzoxadiazol-1-ium-7-yl)propane-1,3-diamine] | No | – | inactive | – | –
31 | O=[N+]([O-])c1ccc(Sc2ncnc3c2ncn3C2OC(CO)C(O)C2O)c2nonc12 (centres unmarked) [PKE137, 2-(hydroxymethyl)-5-[6-[(4-nitro-2,1,3-benzoxadiazol-7-yl)sulfanyl]purin-9-yl]oxolane-3,4-diol] | Yes | 200 µM | inactive | – | inhibition of the replication of influenza virus, particularly influenza A (summary in words) [2]: effectively inhibited
32 | O=[N+]([O-])c1ccc(Sc2ncnc3nc[nH]c23)c2nonc12 [PKE139, 4-nitro-7-(7H-purin-6-ylsulfanyl)-2,1,3-benzoxadiazole] | No | – | inactive | – | –
33 | CC(C)(C)c1csc(-c2ccc3nonc3c2)n1 [PKE140, 5-[4-(tert-butyl)-1,3-thiazol-2-yl]-2,1,3-benzoxadiazole] | Yes | > 1000 µM | inactive | – | inhibition at 1000 µM [1]: 34%
34 | O=[N+]([O-])c1c(NCc2ccccc2)ccc2nonc12 [PKE190, N-benzyl-4-nitro-2,1,3-benzoxadiazol-5-amine] | Yes | > 1000 µM | inactive | – | inhibition at 1000 µM [1]: 37%
35 | CCN(CC)c1cc(Cl)c2nonc2c1[N+](=O)[O-] [PKE191, 7-chloro-N,N-diethyl-4-nitro-2,1,3-benzoxadiazol-5-amine] | No | – | – | effective | inhibition at 11 µM (RSV (Long strain); [4]): 20%
36 | O=c1[nH]nc(Sc2ccccc2)c2nncn12 [PKE217, 8-phenylsulfanyl-6H-[1,2,4]triazolo[4,3-d][1,2,4]triazin-5-one] | No | – | – | – | –
